According to paper PMC4490784, “Compensatory induction of MYC expression by sustained CDK9 inhibition via a BRD4-dependent mechanism” (eLife, 2015):

Key:
Assay in all cases: KINOMEscan binding assay
CSNK1A1L = target: T1, CSNK1A1L (Homo sapiens, UniProt Q8N752); conditions: read-out: % Retention on Solid Support
T1 construct: purchased DiscoveRx KINOMEscan
Description: (§1) As there are no commercial or in-house kinase assays available for CDK3, CDK5, CDK11 and CDK13, the inhibitory abilities of i-CDK9 toward these CDKs were thus evaluated in the DiscoveRx KINOMEscan assay, which is based on a proprietary active site-directed competition-binding platform ([Fabian et al., 2005]).
(§2) The inhibitory activity of i-CDK9 for CDK1-CycB (Upstate/Millipore), CDK2-CycA (Invitrogen), CDK4-CycD1 (Novartis), CDK7-CycH-MAT1 (Invitrogen), and CDK9-CycT1 (Invitrogen) was assessed in the AlphaScreen (PerkinElmer, Inc)-based kinase assay developed at Novartis. Briefly, each CDK–cyclin pair was pre-incubated with i-CDK9 for 15 min, followed by addition of kinase substrates (ELK for CDK1 and CDK2, RB for CDK4, and CDK7tide for CDK7 and CDK9). The mixture was incubated at room temperature for additional 4–5 hr. The reaction was stopped and read on Envision (PerkinElmer, Inc). Selectivity against a large panel of over 400 kinases was evaluated using the KINOMEscan platform (DiscoveRx, CA) employing a proprietary active site-directed competition binding assay ([Fabian et al., 2005]). The assay was conducted at two different concentrations of i-CDK9 (1 and 10 µM) by DiscoveRx.

[1] = target: T2, ABL1(Q252H)-phosphorylated (Homo sapiens, UniProt P00519, Q252H); conditions: 1 µM i-CDK9; read-out: % Retention on Solid Support
T2 construct: purchased DiscoveRx KINOMEscan
Description: as §1, §2

TNK1 = target: T3, TNK1 (Homo sapiens, UniProt Q13470); conditions: read-out: % Retention on Solid Support
T3 construct: purchased DiscoveRx KINOMEscan
Description: as §1, §2

BTK = target: T4, BTK (Homo sapiens, UniProt Q06187)
T4 construct: purchased DiscoveRx KINOMEscan
Description: as §1, §2

NDR1 = target: T5, NDR1 (Homo sapiens, UniProt Q15208); conditions: read-out: % Retention on Solid Support
T5 construct: purchased DiscoveRx KINOMEscan
T5 sequence (Q15208 whole entry): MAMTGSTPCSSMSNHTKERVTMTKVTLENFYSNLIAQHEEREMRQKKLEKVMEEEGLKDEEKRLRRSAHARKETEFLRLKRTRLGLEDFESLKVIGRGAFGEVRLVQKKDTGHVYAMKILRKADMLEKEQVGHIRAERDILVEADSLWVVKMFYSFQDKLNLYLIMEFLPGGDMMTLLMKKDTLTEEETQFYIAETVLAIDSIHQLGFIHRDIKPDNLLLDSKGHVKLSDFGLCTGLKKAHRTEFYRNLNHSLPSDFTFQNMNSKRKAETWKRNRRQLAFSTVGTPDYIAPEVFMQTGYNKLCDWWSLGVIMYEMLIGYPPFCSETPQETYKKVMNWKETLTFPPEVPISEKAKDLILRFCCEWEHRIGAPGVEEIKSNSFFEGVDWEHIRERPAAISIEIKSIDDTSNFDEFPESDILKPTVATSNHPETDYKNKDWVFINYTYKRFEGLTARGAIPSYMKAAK
Description: as §1, §2

PRKD3 = target: T6, PRKD3 (Homo sapiens, UniProt O94806); conditions: read-out: % Retention on Solid Support
T6 construct: purchased DiscoveRx KINOMEscan
Description: as §1, §2

EIF2AK1 = target: T7, EIF2AK1 (Homo sapiens, UniProt Q9BQI3); conditions: 1 µM i-CDK9; read-out: % Retention on Solid Support
T7 construct: purchased DiscoveRx KINOMEscan
Description: as §1, §2

ROCK2 = target: T8, ROCK2 (Homo sapiens, UniProt O75116); conditions: read-out: % Retention on Solid Support
T8 construct: purchased DiscoveRx KINOMEscan
Description: as §1, §2

EPHA7 = target: T9, EPHA7 (Homo sapiens, UniProt Q15375); conditions: read-out: % Retention on Solid Support
T9 construct: purchased DiscoveRx KINOMEscan
Description: as §1, §2

p38-alpha = target: T10, p38-alpha (Homo sapiens, UniProt Q16539)
T10 construct: purchased DiscoveRx KINOMEscan
Description: as §1, §2

PKN1 = target: T11, PKN1 (Homo sapiens, UniProt Q16512); conditions: read-out: % Retention on Solid Support
T11 construct: purchased DiscoveRx KINOMEscan
Description: as §1, §2

CAMKK2 = target: T12, CAMKK2 (Homo sapiens, UniProt Q96RR4); conditions: read-out: % Retention on Solid Support
T12 construct: purchased DiscoveRx KINOMEscan
Description: as §1, §2

[2] = target: T13, JAK3(JH1domain-catalytic) (Homo sapiens, UniProt P52333); conditions: read-out: % Retention on Solid Support
T13 construct: JAK3(JH1domain-catalytic); purchased DiscoveRx KINOMEscan
Description: as §1, §2

HIPK1 = target: T14, HIPK1 (Homo sapiens, UniProt Q86Z02); conditions: read-out: % Retention on Solid Support
T14 construct: purchased DiscoveRx KINOMEscan
Description: as §1, §2

ERBB2 = target: T15, ERBB2 (Homo sapiens, UniProt P04626); conditions: read-out: % Retention on Solid Support
T15 construct: purchased DiscoveRx KINOMEscan
Description: as §1, §2

CAMK1 = target: T16, CAMK1 (Homo sapiens, UniProt Q14012); conditions: read-out: % Retention on Solid Support
T16 construct: purchased DiscoveRx KINOMEscan
T16 sequence (Q14012 whole entry): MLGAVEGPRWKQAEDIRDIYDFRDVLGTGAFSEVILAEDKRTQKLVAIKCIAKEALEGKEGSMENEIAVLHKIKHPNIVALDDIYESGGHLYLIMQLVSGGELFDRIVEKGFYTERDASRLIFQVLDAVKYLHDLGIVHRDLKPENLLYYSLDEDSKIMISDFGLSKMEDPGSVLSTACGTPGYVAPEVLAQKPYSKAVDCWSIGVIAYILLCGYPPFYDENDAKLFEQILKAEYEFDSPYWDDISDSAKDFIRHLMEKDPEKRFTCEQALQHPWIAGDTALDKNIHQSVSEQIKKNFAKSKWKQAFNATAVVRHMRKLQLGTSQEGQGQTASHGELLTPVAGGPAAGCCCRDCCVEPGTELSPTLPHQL
Description: as §1, §2

CDK2 = target: T17, CDK2 (Homo sapiens, UniProt P24941)
T17 construct: purchased DiscoveRx KINOMEscan
Description: as §1, §2

MEK5 = target: T18, MEK5 (Homo sapiens, UniProt Q13163); conditions: 1 µM i-CDK9; read-out: % Retention on Solid Support
T18 construct: purchased DiscoveRx KINOMEscan
Description: as §1, §2

MYLK4 = target: T19, MYLK4 (Homo sapiens, UniProt Q86YV6); conditions: read-out: % Retention on Solid Support
T19 construct: purchased DiscoveRx KINOMEscan
Description: as §1, §2

PIM1 = target: T20, PIM1 (Homo sapiens, UniProt P11309); conditions: read-out: % Retention on Solid Support
T20 construct: purchased DiscoveRx KINOMEscan
T20 sequence (P11309 whole entry): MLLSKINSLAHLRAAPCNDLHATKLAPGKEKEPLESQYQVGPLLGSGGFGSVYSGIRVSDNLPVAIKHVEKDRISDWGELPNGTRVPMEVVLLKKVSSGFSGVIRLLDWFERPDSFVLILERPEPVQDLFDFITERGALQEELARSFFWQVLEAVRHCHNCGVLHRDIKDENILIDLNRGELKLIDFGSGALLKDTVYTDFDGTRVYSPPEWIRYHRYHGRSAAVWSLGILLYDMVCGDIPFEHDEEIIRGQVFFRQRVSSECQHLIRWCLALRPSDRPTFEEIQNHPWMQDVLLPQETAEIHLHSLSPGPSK
Description: as §1, §2

MYLK = target: T21, MYLK (Homo sapiens, UniProt Q15746); conditions: read-out: % Retention on Solid Support
T21 construct: purchased DiscoveRx KINOMEscan
T21 sequence (Q15746 whole entry): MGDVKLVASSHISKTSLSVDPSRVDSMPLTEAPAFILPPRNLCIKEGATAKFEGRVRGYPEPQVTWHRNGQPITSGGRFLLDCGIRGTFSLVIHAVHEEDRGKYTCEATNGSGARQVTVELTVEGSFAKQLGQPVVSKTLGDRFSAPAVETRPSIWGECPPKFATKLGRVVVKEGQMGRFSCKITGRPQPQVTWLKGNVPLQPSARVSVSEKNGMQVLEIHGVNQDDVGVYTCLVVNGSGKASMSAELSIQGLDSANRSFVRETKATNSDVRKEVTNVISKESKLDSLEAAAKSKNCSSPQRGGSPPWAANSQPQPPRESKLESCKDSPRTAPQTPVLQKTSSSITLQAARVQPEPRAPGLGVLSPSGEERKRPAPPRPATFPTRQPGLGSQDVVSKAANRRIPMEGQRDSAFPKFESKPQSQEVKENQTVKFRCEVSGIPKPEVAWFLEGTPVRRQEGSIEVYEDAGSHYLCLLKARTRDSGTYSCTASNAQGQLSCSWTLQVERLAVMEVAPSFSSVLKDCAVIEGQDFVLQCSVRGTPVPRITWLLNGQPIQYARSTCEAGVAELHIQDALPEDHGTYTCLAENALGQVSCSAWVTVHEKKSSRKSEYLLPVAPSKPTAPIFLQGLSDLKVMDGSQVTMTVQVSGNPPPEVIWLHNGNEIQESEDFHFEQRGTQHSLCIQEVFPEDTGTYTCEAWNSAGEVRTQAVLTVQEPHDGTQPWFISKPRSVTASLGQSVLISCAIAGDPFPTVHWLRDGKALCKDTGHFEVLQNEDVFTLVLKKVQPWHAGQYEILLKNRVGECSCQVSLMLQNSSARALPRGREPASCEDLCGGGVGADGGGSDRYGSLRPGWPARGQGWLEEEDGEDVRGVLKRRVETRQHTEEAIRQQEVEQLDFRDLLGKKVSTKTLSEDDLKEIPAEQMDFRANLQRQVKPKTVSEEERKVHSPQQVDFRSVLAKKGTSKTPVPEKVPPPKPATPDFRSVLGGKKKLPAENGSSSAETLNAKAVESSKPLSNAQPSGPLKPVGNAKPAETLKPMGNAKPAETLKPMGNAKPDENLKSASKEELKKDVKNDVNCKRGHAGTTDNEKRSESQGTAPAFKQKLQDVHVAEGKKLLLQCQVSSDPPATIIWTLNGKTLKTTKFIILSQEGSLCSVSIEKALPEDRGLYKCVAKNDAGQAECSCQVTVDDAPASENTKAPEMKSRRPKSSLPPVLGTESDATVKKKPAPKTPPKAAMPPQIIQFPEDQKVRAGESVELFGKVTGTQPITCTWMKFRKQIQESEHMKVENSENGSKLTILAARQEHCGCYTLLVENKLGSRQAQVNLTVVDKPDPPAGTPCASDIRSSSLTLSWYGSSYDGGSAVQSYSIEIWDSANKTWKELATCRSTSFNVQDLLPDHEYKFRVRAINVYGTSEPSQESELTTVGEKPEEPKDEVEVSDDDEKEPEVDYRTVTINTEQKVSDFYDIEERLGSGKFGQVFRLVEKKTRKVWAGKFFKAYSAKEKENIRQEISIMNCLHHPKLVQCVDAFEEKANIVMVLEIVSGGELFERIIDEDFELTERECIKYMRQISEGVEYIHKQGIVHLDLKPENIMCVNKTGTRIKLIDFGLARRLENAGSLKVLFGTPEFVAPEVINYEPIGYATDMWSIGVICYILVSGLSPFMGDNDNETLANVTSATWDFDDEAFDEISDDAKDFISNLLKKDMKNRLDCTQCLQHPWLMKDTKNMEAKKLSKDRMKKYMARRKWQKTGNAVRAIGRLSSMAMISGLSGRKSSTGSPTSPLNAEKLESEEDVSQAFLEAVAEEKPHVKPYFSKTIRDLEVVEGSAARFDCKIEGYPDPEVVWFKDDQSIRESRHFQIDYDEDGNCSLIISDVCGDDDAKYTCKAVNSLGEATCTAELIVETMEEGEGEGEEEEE
Description: as §1, §2

KIT(L576P) = target: T22, KIT(L576P) (Homo sapiens, UniProt P10721, L576P); conditions: read-out: % Retention on Solid Support
T22 construct: purchased DiscoveRx KINOMEscan
T22 sequence (P10721 26-976 L576P): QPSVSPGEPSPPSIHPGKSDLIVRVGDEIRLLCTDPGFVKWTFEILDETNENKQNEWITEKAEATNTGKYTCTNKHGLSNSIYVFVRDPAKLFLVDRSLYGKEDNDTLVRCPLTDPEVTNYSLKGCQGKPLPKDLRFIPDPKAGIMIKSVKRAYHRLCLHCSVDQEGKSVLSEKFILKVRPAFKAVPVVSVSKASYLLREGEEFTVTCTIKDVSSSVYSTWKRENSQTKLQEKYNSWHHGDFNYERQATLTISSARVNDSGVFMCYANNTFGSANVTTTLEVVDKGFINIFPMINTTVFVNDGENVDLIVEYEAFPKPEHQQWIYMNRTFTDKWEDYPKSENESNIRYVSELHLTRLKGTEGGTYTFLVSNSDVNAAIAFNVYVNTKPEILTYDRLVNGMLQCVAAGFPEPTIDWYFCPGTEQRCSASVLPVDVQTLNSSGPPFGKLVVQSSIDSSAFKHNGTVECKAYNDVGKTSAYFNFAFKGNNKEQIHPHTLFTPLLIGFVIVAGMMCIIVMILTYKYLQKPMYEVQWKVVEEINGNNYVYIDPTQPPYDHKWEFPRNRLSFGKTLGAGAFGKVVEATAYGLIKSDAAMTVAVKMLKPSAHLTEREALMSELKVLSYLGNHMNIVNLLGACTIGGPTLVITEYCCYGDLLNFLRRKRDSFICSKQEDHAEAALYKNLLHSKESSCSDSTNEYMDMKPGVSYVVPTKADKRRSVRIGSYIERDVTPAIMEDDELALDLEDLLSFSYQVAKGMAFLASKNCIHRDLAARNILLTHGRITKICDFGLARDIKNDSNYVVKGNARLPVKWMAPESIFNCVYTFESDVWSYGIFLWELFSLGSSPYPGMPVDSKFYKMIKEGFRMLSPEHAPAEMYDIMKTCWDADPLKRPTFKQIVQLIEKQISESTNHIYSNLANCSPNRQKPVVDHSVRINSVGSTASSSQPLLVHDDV
Description: as §1, §2

AKT1 = target: T23, AKT1 (Homo sapiens, UniProt P31749); conditions: read-out: % Retention on Solid Support
T23 construct: purchased DiscoveRx KINOMEscan
Description: as §1, §2

CSNK1G1 = target: T24, CSNK1G1 (Homo sapiens, UniProt Q9HCP0)
T24 construct: purchased DiscoveRx KINOMEscan
T24 sequence (Q9HCP0 whole entry): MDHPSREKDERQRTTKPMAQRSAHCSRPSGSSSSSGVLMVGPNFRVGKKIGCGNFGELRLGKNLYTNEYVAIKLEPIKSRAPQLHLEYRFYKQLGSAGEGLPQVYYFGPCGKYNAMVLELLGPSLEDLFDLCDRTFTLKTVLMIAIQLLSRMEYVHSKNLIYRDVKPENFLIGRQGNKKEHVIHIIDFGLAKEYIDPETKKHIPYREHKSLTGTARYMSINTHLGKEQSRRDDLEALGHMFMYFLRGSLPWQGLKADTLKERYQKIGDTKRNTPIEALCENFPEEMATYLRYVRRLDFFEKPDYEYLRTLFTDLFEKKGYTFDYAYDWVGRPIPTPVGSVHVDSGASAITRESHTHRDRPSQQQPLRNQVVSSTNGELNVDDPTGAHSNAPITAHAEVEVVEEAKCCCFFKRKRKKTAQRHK
Description: as §1, §2

MINK = target: T25, MINK (Homo sapiens, UniProt Q8N4C8); conditions: read-out: % Retention on Solid Support
T25 construct: purchased DiscoveRx KINOMEscan
Description: as §1, §2

MELK = target: T26, MELK (Homo sapiens, UniProt Q14680); conditions: read-out: % Retention on Solid Support
T26 construct: purchased DiscoveRx KINOMEscan
Description: as §1, §2

BIKE = target: T27, BIKE (Homo sapiens, UniProt Q9NSY1); conditions: read-out: % Retention on Solid Support
T27 construct: purchased DiscoveRx KINOMEscan
Description: as §1, §2

SRPK2 = target: T28, SRPK2 (Homo sapiens, UniProt P78362); conditions: read-out: % Retention on Solid Support
T28 construct: purchased DiscoveRx KINOMEscan
Description: as §1, §2

ACVRL1 = target: T29, ACVRL1 (Homo sapiens, UniProt P37023); conditions: read-out: % Retention on Solid Support
T29 construct: purchased DiscoveRx KINOMEscan
Description: as §1, §2

MLK3 = target: T30, MLK3 (Homo sapiens, UniProt Q16584)
T30 construct: purchased DiscoveRx KINOMEscan
Description: as §1, §2

T1 sequence (Q8N752 whole entry): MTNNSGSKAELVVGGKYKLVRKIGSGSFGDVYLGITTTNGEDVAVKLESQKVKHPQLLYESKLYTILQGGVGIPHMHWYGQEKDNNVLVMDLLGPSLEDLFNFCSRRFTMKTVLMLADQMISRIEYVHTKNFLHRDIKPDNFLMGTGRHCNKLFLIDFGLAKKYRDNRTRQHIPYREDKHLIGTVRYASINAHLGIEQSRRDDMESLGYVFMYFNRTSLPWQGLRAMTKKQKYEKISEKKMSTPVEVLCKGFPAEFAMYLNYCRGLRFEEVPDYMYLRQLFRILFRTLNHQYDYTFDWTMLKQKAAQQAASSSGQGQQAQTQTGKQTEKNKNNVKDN

For N[C@H]1CC[C@H](Nc2cc(-c3cccc(NCc4cccc(F)c4)n3)c(Cl)cn2)CC1 [i-CDK9, N2′-(trans-4-aminocyclohexyl)-5′-chloro-N6-(3-fluorobenzyl)-2,4′-bipyridine-2′,6-diamine], the remaining binding at 1 µM (CSNK1A1L; 1 µM i-CDK9) was 97%, the remaining binding at 10 µM (CSNK1A1L; 10 µM i-CDK9) was 100% and the remaining binding at 1 µM [1] was 100%. For the same compound, the remaining binding at 1 µM (TNK1; 1 µM i-CDK9) was 100%, the remaining binding at 10 µM (TNK1; 10 µM i-CDK9) was 65% and the “% Retention on Solid Support” value (BTK; 1 µM i-CDK9) was 100%. For the same compound, the “% Retention on Solid Support” value (BTK; 10 µM i-CDK9) was 100%, the remaining binding at 1 µM (NDR1; 1 µM i-CDK9) was 100% and the remaining binding at 10 µM (NDR1; 10 µM i-CDK9) was 88%. For the same compound, the remaining binding at 1 µM (PRKD3; 1 µM i-CDK9) was 73%, the remaining binding at 10 µM (PRKD3; 10 µM i-CDK9) was 14% and the remaining binding at 1 µM (EIF2AK1) was 85%. The remaining binding at 1 µM (ROCK2; 1 µM i-CDK9) was 100%, the remaining binding at 10 µM (ROCK2; 10 µM i-CDK9) was 90% and the remaining binding at 1 µM (EPHA7; 1 µM i-CDK9) was 100%. The remaining binding at 10 µM (EPHA7; 10 µM i-CDK9) was 96%, the “% Retention on Solid Support” value (p38-alpha; 1 µM i-CDK9) was 85% and the “% Retention on Solid Support” value (p38-alpha; 10 µM i-CDK9) was 100%. The remaining binding at 1 µM (PKN1; 1 µM i-CDK9) was 73%, the remaining binding at 10 µM (PKN1; 10 µM i-CDK9) was 100% and the remaining binding at 1 µM (CAMKK2; 1 µM i-CDK9) was 73%. The remaining binding at 10 µM (CAMKK2; 10 µM i-CDK9) was 100%, the remaining binding at 1 µM ([2]; 1 µM i-CDK9) was 100% and the remaining binding at 10 µM ([2]; 10 µM i-CDK9) was 100%. For the same compound, the remaining binding at 1 µM (HIPK1; 1 µM i-CDK9) was 44%, the remaining binding at 10 µM (HIPK1; 10 µM i-CDK9) was 29% and the remaining binding at 1 µM (ERBB2; 1 µM i-CDK9) was 88%. For the same compound, the remaining binding at 10 µM (ERBB2; 10 µM i-CDK9) was 100%, the remaining binding at 1 µM (CAMK1; 1 µM i-CDK9) was 96% and the remaining binding at 10 µM (CAMK1; 10 µM i-CDK9) was 100%. The “% Retention on Solid Support” value (CDK2; 1 µM i-CDK9) was 85%, the “% Retention on Solid Support” value (CDK2; 10 µM i-CDK9) was 19% and the remaining binding at 1 µM (MEK5) was 100%. For the same compound, the remaining binding at 1 µM (MYLK4; 1 µM i-CDK9) was 94%, the remaining binding at 10 µM (MYLK4; 10 µM i-CDK9) was 73% and the remaining binding at 1 µM (PIM1; 1 µM i-CDK9) was 100%. It also gave a remaining binding at 10 µM (PIM1; 10 µM i-CDK9) of 23%, a remaining binding at 1 µM (MYLK; 1 µM i-CDK9) of 100% and a remaining binding at 10 µM (MYLK; 10 µM i-CDK9) of 100%. For the same compound, the remaining binding at 1 µM (KIT(L576P); 1 µM i-CDK9) was 91%, the remaining binding at 10 µM (KIT(L576P); 10 µM i-CDK9) was 100% and the remaining binding at 1 µM (AKT1; 1 µM i-CDK9) was 100%. For the same compound, the remaining binding at 10 µM (AKT1; 10 µM i-CDK9) was 100%, the “% Retention on Solid Support” value (CSNK1G1; 1 µM i-CDK9) was 81% and the “% Retention on Solid Support” value (CSNK1G1; 10 µM i-CDK9) was 93%. It also gave a remaining binding at 1 µM (MINK; 1 µM i-CDK9) of 100%, a remaining binding at 10 µM (MINK; 10 µM i-CDK9) of 65% and a remaining binding at 1 µM (MELK; 1 µM i-CDK9) of 100%. It also gave a remaining binding at 10 µM (MELK; 10 µM i-CDK9) of 95%, a remaining binding at 1 µM (BIKE; 1 µM i-CDK9) of 100% and a remaining binding at 10 µM (BIKE; 10 µM i-CDK9) of 63%. For the same compound, the remaining binding at 1 µM (SRPK2; 1 µM i-CDK9) was 57%, the remaining binding at 10 µM (SRPK2; 10 µM i-CDK9) was 100% and the remaining binding at 1 µM (ACVRL1; 1 µM i-CDK9) was 95%. The remaining binding at 10 µM (ACVRL1; 10 µM i-CDK9) was 100%, the “% Retention on Solid Support” value (MLK3; 1 µM i-CDK9) was 85% and the “% Retention on Solid Support” value (MLK3; 10 µM i-CDK9) was 100%.
